Experimental data: the NIST ThermoML archive (doi:10.1021/acs.jced.6b00178)

CCCCn1cc[n+](C)c1.F[P-](F)(F)(F)(F)F [1-butyl-3-methylimidazolium hexafluorophosphate]
100 kPa
Conditions	mass density [kg/m3]	viscosity [mPa·s]
283.15 K, Metastable liquid, Concentric cylinders viscometry	–	794.33
283.15 K, Metastable liquid, Vibrating tube method	1379.9	–
288.15 K, Concentric cylinders viscometry, Liquid	–	557.27
288.15 K, Vibrating tube method, Liquid	1376.5	–
293.15 K, Concentric cylinders viscometry, Liquid	–	393.86
293.15 K, Vibrating tube method, Liquid	1372	–
298.15 K, Concentric cylinders viscometry, Liquid	–	285.02
298.15 K, Vibrating tube method, Liquid	1367.6	–
303.15 K, Concentric cylinders viscometry, Liquid	–	210.93
303.15 K, Vibrating tube method, Liquid	1363.4	–
308.15 K, Concentric cylinders viscometry, Liquid	–	159.46
308.15 K, Vibrating tube method, Liquid	1359.2	–
313.15 K, Concentric cylinders viscometry, Liquid	–	122.78
313.15 K, Vibrating tube method, Liquid	1355.1	–
318.15 K, Concentric cylinders viscometry, Liquid	–	96.28
318.15 K, Vibrating tube method, Liquid	1351	–
323.15 K, Concentric cylinders viscometry, Liquid	–	76.72
323.15 K, Vibrating tube method, Liquid	1347	–
328.15 K, Concentric cylinders viscometry, Liquid	–	62.04
328.15 K, Vibrating tube method, Liquid	1342.9	–
333.15 K, Concentric cylinders viscometry, Liquid	–	50.85
333.15 K, Vibrating tube method, Liquid	1338.9	–
338.15 K, Concentric cylinders viscometry, Liquid	–	42.2
338.15 K, Vibrating tube method, Liquid	1334.9	–
343.15 K, Concentric cylinders viscometry, Liquid	–	35.43
343.15 K, Vibrating tube method, Liquid	1330.9	–
348.15 K, Concentric cylinders viscometry, Liquid	–	30.04
348.15 K, Vibrating tube method, Liquid	1326.9	–
353.15 K, Concentric cylinders viscometry, Liquid	–	25.72
353.15 K, Vibrating tube method, Liquid	1323	–
358.15 K, Concentric cylinders viscometry, Liquid	–	22.22
358.15 K, Vibrating tube method, Liquid	1319	–
363.15 K, Concentric cylinders viscometry, Liquid	–	19.36
363.15 K, Vibrating tube method, Liquid	1315.2	–

CCCCn1cc[n+](C)c1.F[B-](F)(F)F [1-butyl-3-methylimidazolium tetrafluoroborate]
100 kPa, Liquid
Conditions	mass density, Vibrating tube method [kg/m3]	viscosity, Concentric cylinders viscometry [mPa·s]
283.15 K	1212.5	264.99
288.15 K	1208.8	192.43
293.15 K	1205.2	143.08
298.15 K	1201.6	108.74
303.15 K	1198	84.28
308.15 K	1194.5	66.52
313.15 K	1190.9	53.37
318.15 K	1187.4	43.47
323.15 K	1184	35.89
328.15 K	1180.5	30.01
333.15 K	1177	25.38
338.15 K	1173.6	21.68
343.15 K	1170.2	18.7
348.15 K	1166.8	16.26
353.15 K	1163.4	14.26
358.15 K	1160.1	12.59
363.15 K	1156.8	11.2

CCCCn1cc[n+](C)c1.N#C[S-] [1-butyl-3-methylimidazolium thiocyanate]
100 kPa, Liquid
Conditions	mass density, Vibrating tube method [kg/m3]	viscosity, Concentric cylinders viscometry [mPa·s]
283.15 K	1079.2	139.54
288.15 K	1076.2	104.51
293.15 K	1073.2	82.91
298.15 K	1070.2	62.63
303.15 K	1067.2	49.94
308.15 K	1064.2	40.48
313.15 K	1061.3	34.08
318.15 K	1058.4	27.8
323.15 K	1055.5	23.49
328.15 K	1052.6	20.06
333.15 K	1049.8	17.58
338.15 K	1047	15.08
343.15 K	1044.1	13.24
348.15 K	1041.4	11.71
353.15 K	1038.6	10.67
358.15 K	1035.8	9.355
363.15 K	1033.1	8.436

CCCCn1cc[n+](C)c1.O=S(=O)([O-])C(F)(F)F [1-butyl-3-methylimidazolium trifluoromethanesulfonate]
100 kPa
Conditions	mass density [kg/m3]	viscosity [mPa·s]
283.15 K, Metastable liquid, Concentric cylinders viscometry	–	225.61
283.15 K, Metastable liquid, Vibrating tube method	1308.4	–
288.15 K, Metastable liquid, Concentric cylinders viscometry	–	168.05
288.15 K, Metastable liquid, Vibrating tube method	1304.3	–
293.15 K, Concentric cylinders viscometry, Liquid	–	128.51
293.15 K, Vibrating tube method, Liquid	1300.3	–
298.15 K, Concentric cylinders viscometry, Liquid	–	99.14
298.15 K, Vibrating tube method, Liquid	1296.3	–
303.15 K, Concentric cylinders viscometry, Liquid	–	78.26
303.15 K, Vibrating tube method, Liquid	1292.3	–
308.15 K, Concentric cylinders viscometry, Liquid	–	62.76
308.15 K, Vibrating tube method, Liquid	1288.4	–
313.15 K, Concentric cylinders viscometry, Liquid	–	51.33
313.15 K, Vibrating tube method, Liquid	1284.5	–
318.15 K, Concentric cylinders viscometry, Liquid	–	42.1
318.15 K, Vibrating tube method, Liquid	1280.6	–
323.15 K, Concentric cylinders viscometry, Liquid	–	35.13
323.15 K, Vibrating tube method, Liquid	1276.7	–
328.15 K, Concentric cylinders viscometry, Liquid	–	29.63
328.15 K, Vibrating tube method, Liquid	1272.8	–
333.15 K, Concentric cylinders viscometry, Liquid	–	25.5
333.15 K, Vibrating tube method, Liquid	1268.9	–
338.15 K, Concentric cylinders viscometry, Liquid	–	21.72
338.15 K, Vibrating tube method, Liquid	1265.1	–
343.15 K, Concentric cylinders viscometry, Liquid	–	18.84
343.15 K, Vibrating tube method, Liquid	1261.3	–
348.15 K, Concentric cylinders viscometry, Liquid	–	16.47
348.15 K, Vibrating tube method, Liquid	1257.5	–
353.15 K, Concentric cylinders viscometry, Liquid	–	14.83
353.15 K, Vibrating tube method, Liquid	1253.7	–
358.15 K, Concentric cylinders viscometry, Liquid	–	12.86
358.15 K, Vibrating tube method, Liquid	1249.9	–
363.15 K, Concentric cylinders viscometry, Liquid	–	11.48
363.15 K, Vibrating tube method, Liquid	1246.2	–
